Active and inactive are the calls of the source. The rule behind the calls is not given here.
Assays:
Carbonic anhydrase 9 = Carbonic anhydrase 9 (Homo sapiens, UniProt Q16790); experiment: Inhibition of recombinant human carbonic anhydrase 9 preincubated for 15 mins by phenol red dye based stopped flow CO2 hydration assay
MDA-MB-231 [1] = experiment: Cytotoxicity against human MDA-MB-231 cells assessed as reduction in cell viability at 30 uM after 48 hrs under hypoxia condition by MTT assay relative to control; assay type: functional
MDA-MB-231 [2] = experiment: Cytotoxicity against human MDA-MB-231 cells assessed as reduction in cell viability at 3 uM after 48 hrs under normoxia condition by MTT assay relative to control; assay type: functional
MDA-MB-231 [3] = experiment: Cytotoxicity against human MDA-MB-231 cells assessed as reduction in cell viability at 10 uM after 48 hrs under normoxia condition by MTT assay; assay type: functional, cell-based
MDA-MB-231 [4] = experiment: Cytotoxicity against human MDA-MB-231 cells assessed as reduction in cell viability at 3 uM after 48 hrs under hypoxia condition by MTT assay relative to control; assay type: functional
MDA-MB-231 [5] = experiment: Cytotoxicity against human MDA-MB-231 cells assessed as reduction in cell viability at 3 to 10 uM after 48 hrs under normoxia condition by MTT assay; assay type: functional, cell-based

For `COc1ccc([Te]CC(O)COc2ccc(S(N)(=O)=O)cc2)cc1` (centres undefined), the Ki (Carbonic anhydrase 9) was 7.8 nM.

With `NS(=O)(=O)c1ccc(OCC(O)C[Te]c2ccccc2)cc1` (centres undefined) the Ki (Carbonic anhydrase 9) was 14.8 nM.

Work on `NS(=O)(=O)c1ccc(OCC(O)C[Te]CC(O)COc2ccc(S(N)(=O)=O)cc2)cc1` (centres undefined) yielded a Ki (Carbonic anhydrase 9) of 809 nM.

Molecule `CC[Te]CC(O)COc1ccc(S(N)(=O)=O)cc1` (centres undefined) has a Ki (Carbonic anhydrase 9) of 40.7 nM.

With `CCCC[Te]CC(O)COc1ccc(S(N)(=O)=O)cc1` (centres undefined) the Ki (Carbonic anhydrase 9) was 333 nM.

With `Cc1ccccc1[Te]CC(O)COc1ccc(S(N)(=O)=O)cc1` (centres undefined) the Activity (MDA-MB-231 [1]) was >50%, the Activity (MDA-MB-231 [2]) was >50% and the Activity (MDA-MB-231 [3]) was “Active”. For the same molecule, the Ki (Carbonic anhydrase 9) was 9.5 nM and the Activity (MDA-MB-231 [4]) was 32%.

`NS(=O)(=O)c1ccc(OCC(O)C[Te]c2ccc3ccccc3c2)cc1` (centres undefined) was tested, and the Activity (MDA-MB-231 [1]) was 90%, the Activity (MDA-MB-231 [5]) was “Active” and the Ki (Carbonic anhydrase 9) was 6.4 nM.

`Cc1ccc([Te]CC(O)COc2ccc(S(N)(=O)=O)cc2)cc1` (centres undefined) gave a Ki (Carbonic anhydrase 9) of 118 nM.

Reference: ChEMBL document CHEMBL4359874, “Synthesis of novel tellurides bearing benzensulfonamide moiety as carbonic anhydrase inhibitors with antitumor activity” (Eur J Med Chem, 2019)
